The text below walks through data of ChEMBL document CHEMBL1131530, “Synthesis and biological activities of tricyclic conformationally restricted tetrahydropyrido annulated furo[2,3-d]pyrimidines as inhibitors of dihydrofolate reductases” (J Med Chem, 1998).

Some results are limits rather than exact numbers.

Data set [1] in a line: Selectivity for dihydrofolate reductase enzyme in rat liver and Pneumocystis carinii.
Data set [2] can be described thus: Selectivity for dihydrofolate reductase enzyme in rat liver Toxoplasma gondii.
Data set [3] addresses T1, Dihydrofolate reductase (Mycobacterium avium, UniProt O30463).
T1 sequence (O30463 whole entry): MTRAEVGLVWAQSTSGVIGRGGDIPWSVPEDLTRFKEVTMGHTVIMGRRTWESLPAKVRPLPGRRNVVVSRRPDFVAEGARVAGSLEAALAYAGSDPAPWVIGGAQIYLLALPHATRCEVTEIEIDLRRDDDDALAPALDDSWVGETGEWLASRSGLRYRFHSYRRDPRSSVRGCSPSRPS
The experiment in a line: Inhibitory concentration was evaluated against […] Dihydrofolate reductase enzyme in Mycobacterium avium.

Data set [4] has as its target T2, Dihydrofolate reductase (Rattus norvegicus, UniProt Q920D2).
T2 sequence (Q920D2 whole entry): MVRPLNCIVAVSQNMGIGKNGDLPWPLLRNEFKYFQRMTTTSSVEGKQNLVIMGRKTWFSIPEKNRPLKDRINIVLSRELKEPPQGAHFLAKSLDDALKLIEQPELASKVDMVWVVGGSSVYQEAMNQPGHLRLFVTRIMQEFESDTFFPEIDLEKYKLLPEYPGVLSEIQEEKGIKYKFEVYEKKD

Data set [5] deals with T3, Dihydrofolate reductase (Pneumocystis carinii, UniProt P16184).
T3 sequence (P16184 whole entry): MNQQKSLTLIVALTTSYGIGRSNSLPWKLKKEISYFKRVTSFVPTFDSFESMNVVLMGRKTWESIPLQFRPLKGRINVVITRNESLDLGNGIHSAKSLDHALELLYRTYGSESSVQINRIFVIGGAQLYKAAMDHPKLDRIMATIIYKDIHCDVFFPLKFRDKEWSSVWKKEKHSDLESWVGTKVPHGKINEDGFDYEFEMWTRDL

In data set [6] the target is T4, Bifunctional dihydrofolate reductase-thymidylate synthase (Toxoplasma gondii, UniProt Q07422).
T4 sequence (Q07422 whole entry): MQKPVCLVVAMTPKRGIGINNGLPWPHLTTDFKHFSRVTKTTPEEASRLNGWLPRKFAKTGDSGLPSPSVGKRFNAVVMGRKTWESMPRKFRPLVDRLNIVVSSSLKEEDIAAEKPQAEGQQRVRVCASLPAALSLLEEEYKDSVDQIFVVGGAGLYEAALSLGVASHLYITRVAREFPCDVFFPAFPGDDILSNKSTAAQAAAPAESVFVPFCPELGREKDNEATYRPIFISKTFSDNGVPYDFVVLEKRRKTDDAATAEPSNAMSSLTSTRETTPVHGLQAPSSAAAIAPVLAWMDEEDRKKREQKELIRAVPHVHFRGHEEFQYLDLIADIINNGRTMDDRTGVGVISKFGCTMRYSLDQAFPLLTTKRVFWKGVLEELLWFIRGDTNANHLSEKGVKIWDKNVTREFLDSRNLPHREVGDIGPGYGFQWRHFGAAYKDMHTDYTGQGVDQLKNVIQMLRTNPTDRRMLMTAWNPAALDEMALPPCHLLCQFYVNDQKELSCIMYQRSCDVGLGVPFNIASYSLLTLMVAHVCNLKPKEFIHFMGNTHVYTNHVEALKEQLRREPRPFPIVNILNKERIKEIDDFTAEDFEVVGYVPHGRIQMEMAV

Another data set is filed under the species Homo sapiens. As to the kind of experiment: Growth inhibition was measured for inhibition of growth in FaDu human squamous cell carcinoma of the head and neck. The format is functional.
Data set [7] concerns the target T5, Folylpolyglutamate synthase, mitochondrial (Homo sapiens) (UniProt Q05932).
T5 sequence (whole entry): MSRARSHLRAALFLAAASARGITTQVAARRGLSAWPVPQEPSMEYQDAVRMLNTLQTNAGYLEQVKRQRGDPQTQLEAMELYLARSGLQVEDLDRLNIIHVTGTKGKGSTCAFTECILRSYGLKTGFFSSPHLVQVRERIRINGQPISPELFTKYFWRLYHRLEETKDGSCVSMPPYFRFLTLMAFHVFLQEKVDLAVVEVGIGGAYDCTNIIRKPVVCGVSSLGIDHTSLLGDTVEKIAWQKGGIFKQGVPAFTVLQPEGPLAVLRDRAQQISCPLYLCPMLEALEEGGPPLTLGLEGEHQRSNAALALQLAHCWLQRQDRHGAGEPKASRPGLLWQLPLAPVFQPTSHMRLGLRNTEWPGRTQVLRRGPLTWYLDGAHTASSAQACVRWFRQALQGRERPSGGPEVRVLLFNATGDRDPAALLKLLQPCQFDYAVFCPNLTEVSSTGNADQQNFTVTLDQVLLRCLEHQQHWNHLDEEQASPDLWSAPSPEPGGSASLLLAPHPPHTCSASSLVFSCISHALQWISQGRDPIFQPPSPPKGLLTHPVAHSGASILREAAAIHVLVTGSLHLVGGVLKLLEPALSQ
As to the kind of experiment: Activity of substrate for human FPGS was evaluated and compared to that of aminopterin (AMT).

Data set [8] deals with CCRF-CEM. As to the kind of experiment: Growth inhibition was measured for inhibition of growth in CCRF-CEM sublines resistant to MTX solely as a result of decreased polyglutamation. Type of data set: functional, cell-based. The settings on record: Homo sapiens.
Data set [9] relates to CCRF-CEM. The experiment in a line: Growth inhibition was measured as for inhibition of growth in CCRF-CEM cells. Type of data set: functional, cell-based. The settings on record: Homo sapiens.
The subject of data set [10] is CCRF-CEM. The experiment in a line: Growth inhibition was measured for inhibition of growth in CCRF-CEM subline resistant to MTX solely as a result of a 20-fold increase in wild-type DHFR protein and activity. The format is functional, cell-based. The following applies: Homo sapiens.
Substrate in data set [11]: Nc1nc(N)c2c3c(oc2n1)CN(Cc1ccc(C(=O)N[C@@H](CCC(=O)O)C(=O)O)cc1)CC3
The experiment in a line: Binding affinity was evaluated on CCRF-CEM human leukemia cell folyl-poly-glutamate synthetase. Type of data set: cell-based.

As to `Nc1nc(N)c2c(CNc3ccc(C(=O)NC(CCC(=O)O)C(=O)O)cc3)coc2n1` (configuration not stated), the Selectivity ratio in data set [1] came to 1.4; in data set [2], 1.9.
The term IC50 denotes the concentration that inhibits the measured activity by half. Higher therefore signals weaker potency in that assay. For `Nc1nc(N)c2c3c(oc2n1)CN(Cc1c(Cl)cccc1Cl)CC3`, the IC50 against Dihydrofolate reductase [3] was above 81.2 µM; on Dihydrofolate reductase [4] it was 81.2 µM; against Dihydrofolate reductase [5], 40.5 µM; in data set [6] it was 31.7 µM. Moreover, the Selectivity ratio turned out to be 2 in data set [1] and 2.5 in data set [2].
For the molecule `COc1cc(CN2CCc3c(oc4nc(N)nc(N)c34)C2)cc(OC)c1OC`, the IC50 was 12.1 µM against Dihydrofolate reductase [3], above 35 µM at Dihydrofolate reductase [4], above 35 µM against Dihydrofolate reductase [5] and above 35 µM in data set [6].
Take `CN(Cc1coc2nc(N)nc(N)c12)c1ccc(C(=O)NC(CCC(=O)O)C(=O)O)cc1` (configuration not stated): the Selectivity ratio amounted to 12.2 in data set [1] and 0.021 in data set [2].
One may read the EC50 as the concentration at which the effect is half-maximal. `CN(Cc1cnc2nc(N)nc(N)c2n1)c1ccc(C(=O)N[C@@H](CCC(=O)O)C(=O)O)cc1` [METHOTREXATE]: in the data set listed under Homo sapiens, the EC50 was determined as 0.0172 µM.
In turn, `Nc1nc(N)c2c3c(oc2n1)CN(Cc1ccc(C(=O)N[C@@H](CCC(=O)O)C(=O)O)cc1)CC3` had a Relative Vmax in data set [7] of 0.29. The EC50 in the data set with CCRF-CEM [8] was above 50 µM; in the data set on CCRF-CEM [9], 3.6 µM; in the data set on CCRF-CEM [10], 10.3 µM; in the data set listed under Homo sapiens it was above 100 µM. Also, the values for the IC50 (against Dihydrofolate reductase [3]; at Dihydrofolate reductase [4]; in [6]) were 0.97 µM, 85.8 µM and 21.5 µM, respectively. Also, the figures for the Selectivity ratio in [1] and in [2] were 7.9 and 4, respectively.
As for `Nc1nc(N)c2c3c(oc2n1)CN(Cc1ccc(Cl)c(Cl)c1)CC3`, the IC50 against Dihydrofolate reductase [3] was above 20 µM; at Dihydrofolate reductase [4], 20.6 µM; against Dihydrofolate reductase [5], 24.1 µM; in data set [6] it was 22.3 µM. Further, the Selectivity ratio in [1] is 0.9.
`Nc1nc(N)c2nc(CNc3ccc(C(=O)N[C@@H](CCC(=O)O)C(=O)O)cc3)cnc2n1` yielded a Relative Vmax in [7] of 1.
Consider `Nc1nc(N)c2c3c(oc2n1)CN(Cc1ccccc1)CC3`, for which the IC50 against Dihydrofolate reductase [3] is above 15 µM; at Dihydrofolate reductase [4] it was 15 µM; against Dihydrofolate reductase [5] it was above 9 µM; in [6] it was 1.4 µM. For the same molecule, the Selectivity ratio in data set [2] is above 10.
For the molecule `Nc1nc(N)c2c3c(oc2n1)CN(Cc1ccc(Cl)cc1Cl)CC3`, the IC50 is above 50 µM on Dihydrofolate reductase [3], 50.9 µM against Dihydrofolate reductase [4], 22.6 µM against Dihydrofolate reductase [5] and 13.1 µM in data set [6]. Further, the Selectivity ratio in [1] was 2.3; in data set [2], 3.9.
With `COc1cc(CN2CCc3c(oc4nc(N)nc(N)c34)C2)cc(OC)c1`, the IC50 on Dihydrofolate reductase [3] is above 20 µM; against Dihydrofolate reductase [4] it was 22.8 µM; against Dihydrofolate reductase [5] it was above 22.8 µM; in data set [6], above 20.4 µM.

B1: Folylpolyglutamate synthase, mitochondrial (Homo sapiens), Q05932 (protein)
chain: MSRARSHLRAALFLAAASARGITTQVAARRGLSAWPVPQEPSMEYQDAVRMLNTLQTNAGYLEQVKRQRGDPQTQLEAMELYLARSGLQVEDLDRLNIIHVTGTKGKGSTCAFTECILRSYGLKTGFFSSPHLVQVRERIRINGQPISPELFTKYFWRLYHRLEETKDGSCVSMPPYFRFLTLMAFHVFLQEKVDLAVVEVGIGGAYDCTNIIRKPVVCGVSSLGIDHTSLLGDTVEKIAWQKGGIFKQGVPAFTVLQPEGPLAVLRDRAQQISCPLYLCPMLEALEEGGPPLTLGLEGEHQRSNAALALQLAHCWLQRQDRHGAGEPKASRPGLLWQLPLAPVFQPTSHMRLGLRNTEWPGRTQVLRRGPLTWYLDGAHTASSAQACVRWFRQALQGRERPSGGPEVRVLLFNATGDRDPAALLKLLQPCQFDYAVFCPNLTEVSSTGNADQQNFTVTLDQVLLRCLEHQQHWNHLDEEQASPDLWSAPSPEPGGSASLLLAPHPPHTCSASSLVFSCISHALQWISQGRDPIFQPPSPPKGLLTHPVAHSGASILREAAAIHVLVTGSLHLVGGVLKLLEPALSQ
The term Km denotes the substrate concentration at which the rate is half of its maximum. As to B1, in [11], the Michaelis-Menten constant (Km) is 6.2 µM.
